From ChEMBL document CHEMBL1201862, “PubChem BioAssay data set” (2004)
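Protocol summary: plate cells (96-well), add compound at 5 concentrations, incubate 48 h, interpolate endpoints linearly. The concentration for 50% growth inhibition is given as GI50.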 The source made the active and inactive calls. Rule as the data show it: active = GI50 up to about 1.1 µM and inactive = higher.

Assays:
Test in all cases: NCI tumour cell line growth inhibition, 48 h
786-0 = tested on: 786-0
COLO 205 = tested on: COLO 205
EKVX = tested on: EKVX
HCT-116 = tested on: HCT-116
HOP-62 = tested on: HOP-62
HOP-92 = tested on: HOP-92
IGROV-1 = tested on: IGROV-1
KM12 = tested on: KM12
MCF7 = tested on: MCF7
MOLT-4 = tested on: MOLT-4
NCI-H23 = tested on: NCI-H23
OVCAR-4 = tested on: OVCAR-4
RPMI-8226 = tested on: RPMI-8226
SK-MEL-28 = tested on: SK-MEL-28
SK-MEL-5 = tested on: SK-MEL-5
SN12C = tested on: SN12C
SNB-19 = tested on: SNB-19
U-251 = tested on: U-251
M14 = tested on: M14
SK-MEL-2 = tested on: SK-MEL-2

Measured: GI50

O=C(OCc1ccccc1)C(Cc1ccc(OCc2ccccc2)cn1)NC(=O)C(F)(F)F (stereo not given)
inactive: 786-0 > 100 µM | COLO 205 27.4 µM | EKVX > 100 µM | HCT-116 > 100 µM | HOP-62 > 100 µM | HOP-92 > 100 µM | IGROV-1 > 100 µM | KM12 > 100 µM | MCF7 > 10 µM | MOLT-4 33.7 µM | NCI-H23 86.9 µM | OVCAR-4 > 100 µM | RPMI-8226 92.5 µM | SK-MEL-28 > 100 µM | SK-MEL-5 35.4 µM | SN12C > 100 µM | SNB-19 > 100 µM | U-251 72.3 µM

c1csc(-c2ccsc2-c2ccsc2)c1
inactive: 786-0 97.3 µM | COLO 205 73.8 µM | EKVX 53.8 µM | HCT-116 60.8 µM | HOP-62 > 100 µM | HOP-92 > 100 µM | IGROV-1 > 100 µM | KM12 48.4 µM | M14 > 100 µM | MCF7 > 100 µM | MOLT-4 28.4 µM | NCI-H23 43.5 µM | OVCAR-4 84.1 µM | RPMI-8226 30.2 µM | SK-MEL-28 > 100 µM | SK-MEL-2 17.5 µM | SK-MEL-5 70 µM | SN12C > 100 µM | U-251 > 100 µM

O=[N+]([O-])c1ccc(/C=C/c2ccc(/N=N/c3ccc(/C=C/c4ccc([N+](=O)[O-])cc4S(=O)(=O)O)c(S(=O)(=O)O)c3)cc2S(=O)(=O)O)c(S(=O)(=O)O)c1
inactive: COLO 205 > 100 µM | EKVX > 100 µM | HCT-116 > 100 µM | HOP-62 > 100 µM | HOP-92 > 53.1 µM | IGROV-1 > 100 µM | KM12 > 100 µM | MCF7 > 100 µM | MOLT-4 > 100 µM | NCI-H23 > 100 µM | OVCAR-4 > 56.8 µM | SK-MEL-28 > 100 µM | SK-MEL-2 > 100 µM | SK-MEL-5 > 100 µM | SN12C > 100 µM | U-251 > 100 µM

O=C1CC(CC(O)[C@@H]2CCCC[C@@H]2O)CC(=O)N1c1ccccc1 (stereo not given in full)
inactive: 786-0 > 100 µM | HCT-116 > 100 µM | HOP-62 > 100 µM | HOP-92 83.8 µM | IGROV-1 > 100 µM | KM12 > 100 µM | M14 > 100 µM | MCF7 > 100 µM | MOLT-4 > 100 µM | NCI-H23 > 100 µM | OVCAR-4 > 100 µM | RPMI-8226 > 100 µM | SK-MEL-28 > 100 µM | SK-MEL-5 > 100 µM | SN12C > 100 µM | SNB-19 > 100 µM | U-251 > 100 µM

CCC1CN(C(=O)c2ccccc2)C(Cc2c[nH]c3ccccc23)C(=O)C1CC(=O)OC (stereo not given)
inactive: COLO 205 > 100 µM | EKVX 77.4 µM | HOP-62 39 µM | HOP-92 > 100 µM | IGROV-1 72.4 µM | KM12 59.2 µM | M14 58.6 µM | MCF7 57.5 µM | MOLT-4 27.7 µM | NCI-H23 74.6 µM | OVCAR-4 > 100 µM | SK-MEL-28 > 100 µM | SK-MEL-2 > 100 µM | SK-MEL-5 72.8 µM | SN12C > 100 µM | U-251 41.6 µM

O=C1CS(=O)(=O)C(c2cccc(Oc3ccccc3)c2)N1c1ccccc1 (stereo not given)
inactive: 786-0 17.8 µM | COLO 205 20 µM | EKVX 16.4 µM | HCT-116 16.3 µM | HOP-62 36.7 µM | HOP-92 14.6 µM | KM12 25.8 µM | M14 18.7 µM | MCF7 14.3 µM | MOLT-4 20.4 µM | NCI-H23 25.1 µM | OVCAR-4 26.1 µM | SK-MEL-28 26.2 µM | SK-MEL-2 16.1 µM | SK-MEL-5 14.9 µM | SN12C 19.4 µM | SNB-19 43.3 µM | U-251 16.6 µM

Cn1c2ccccc2n2c(=O)c(-c3ccc(O)cc3)nnc12
inactive: 786-0 40.2 µM | COLO 205 > 100 µM | EKVX 21.2 µM | HCT-116 > 100 µM | HOP-62 42.4 µM | HOP-92 > 100 µM | IGROV-1 > 100 µM | KM12 > 100 µM | M14 > 100 µM | MCF7 > 100 µM | MOLT-4 > 100 µM | NCI-H23 > 100 µM | OVCAR-4 > 100 µM | SK-MEL-28 > 100 µM | SK-MEL-2 > 100 µM | SK-MEL-5 > 100 µM | SN12C > 100 µM | SNB-19 80.4 µM | U-251 28.2 µM

Cc1nc2nnc(CCCCCCCCc3nnc4nc(C)[nH]n34)n2[nH]1
inactive: 786-0 > 100 µM | COLO 205 > 100 µM | EKVX > 100 µM | HCT-116 > 100 µM | HOP-62 > 100 µM | HOP-92 > 100 µM | IGROV-1 > 100 µM | KM12 66.1 µM | M14 > 100 µM | MCF7 > 100 µM | MOLT-4 > 100 µM | NCI-H23 > 100 µM | OVCAR-4 > 100 µM | SK-MEL-28 > 100 µM | SK-MEL-2 > 100 µM | SK-MEL-5 > 100 µM | SN12C > 100 µM | SNB-19 > 100 µM | U-251 > 100 µM

CC1CCCCNC1=S (stereo not given)
inactive: EKVX > 10 µM | HOP-62 > 10 µM | HOP-92 > 10 µM | IGROV-1 > 10 µM | KM12 > 10 µM | M14 > 10 µM | MCF7 > 10 µM | MOLT-4 > 10 µM | NCI-H23 > 10 µM | SK-MEL-28 > 10 µM | SK-MEL-2 > 10 µM | SK-MEL-5 > 10 µM | SN12C > 10 µM | SNB-19 > 10 µM | U-251 > 10 µM

Oc1ccc2ccccc2c1Cc1c(O)ccc2ccccc12
inactive: 786-0 21.1 µM | COLO 205 17.9 µM | EKVX 16.2 µM | HCT-116 16.1 µM | HOP-62 16.4 µM | IGROV-1 4.04 µM | KM12 18.2 µM | M14 16.7 µM | MCF7 21.8 µM | MOLT-4 15 µM | NCI-H23 16.1 µM | OVCAR-4 13.1 µM | RPMI-8226 16.4 µM | SK-MEL-28 21.6 µM | SK-MEL-2 18.6 µM | SK-MEL-5 16.1 µM | SN12C 16.2 µM | SNB-19 18.4 µM | U-251 15.4 µM

C=C(Br)CN(C#N)CC(=C)Br
inactive: 786-0 > 100 µM | COLO 205 > 100 µM | EKVX > 100 µM | HCT-116 > 100 µM | HOP-62 > 100 µM | IGROV-1 > 100 µM | KM12 > 100 µM | M14 > 100 µM | MCF7 > 100 µM | MOLT-4 > 100 µM | NCI-H23 > 100 µM | OVCAR-4 > 100 µM | RPMI-8226 > 100 µM | SK-MEL-28 > 100 µM | SK-MEL-2 > 100 µM | SK-MEL-5 > 100 µM | SN12C > 100 µM | SNB-19 > 100 µM | U-251 > 100 µM
